Reference: patent publication US20250032449A1, “TREATMENT OF RHEUMATOID ARTHRITIS” (SYNACT PHARMA APS, priority 2021, published 2025)
Like-named read-outs stand apart in the source and are kept apart here.

How the values were obtained:
[1] = test system: aminotransferases (ALT or ALAT, AST); conditions: known effect of MTX; cited from earlier work
macrophages = conditions: cited from earlier work
peritonitis = conditions: oral, cited from earlier work
MC3R = conditions: cited from earlier work
[2] = test system: mouse primary macrophages; conditions: cited from earlier work
mouse model of arthritis = conditions: WO 2020/229297; cited from earlier work
melanocytes = conditions: cited from earlier work
MC1R = conditions: cited from earlier work
[3] = test system: alanine aminotransferase/alanine transaminase (ALAT)
Source text: The study population will consist of newly diagnosed subjects with severe active RA (CDAI (Clinical disease activity score)>22) who are to start up-titration with methotrexate (MTX).
Sodium, potassium, chloride, calcium, glucose, creatinine, urea, albumin, unconjugated and total bilirubin, aspartate transaminase (AST), alanine transaminase (ALT), alkaline phosphatase (ALP), gamma-glutamyl transferase (GGT) and INR. The biochemistry blood samples will be taken at all visits. A serum β-HCG pregnancy test will be taken at screening.
Safety measures (AEs, SAEs, including laboratory abnormalities) will be registered during the whole study duration.
ALAT is commonly elevated following MTX treatment.

[4] = test system: experimental inflammatory arthritis; conditions: oral; cited from earlier work
[5] = steady conditions, repeated dose Phase I
[6] = test system: newly diagnosed subjects with severe active RA (CDAI>22); experiment: Phase IIa placebo-controlled study in early RA patients starting MTX: CDAI; conditions: for CDAI Baseline, group mean / CDAI Screening, group mean / CDAI Week 4, group mean / CDAI Week 2, group mean / CDAI Week 5, group mean / CDAI Difference / CDAI Difference in %: n = 31; for CDAI Baseline, group mean / CDAI Screening, group mean: before treatment; for CDAI Week 4, group mean: end of treatment; for CDAI Week 2, group mean: mid-treatment; for CDAI Week 5, group mean: one week follow-up after last dosage; for CDAI Difference / CDAI Difference in %: week 4 versus baseline
[7] = 50 mg AP1189 once daily plus MTX weekly, 2 weeks, n 32
[8] = 50 mg AP1189 once daily plus MTX weekly, 4 weeks (end of treatment), n 33
[9] = 50 mg AP1189 once daily plus MTX weekly, 5 weeks (one week after final dosage), n 32
[10] = 100 mg AP1189 once daily plus MTX weekly, 2 weeks, n 34
[11] = 100 mg AP1189 once daily plus MTX weekly, 4 weeks (end of treatment), n 33
[12] = 100 mg AP1189 once daily plus MTX weekly, 5 weeks (one week after final dosage), n 35
[13] = 100 mg dosage AP1189 (acetate salt), with MTX
[14] = 50 mg AP1189 (acetate salt) group
[15] = 50 mg AP1189 (acetate salt) once daily plus MTX (10-25 mg) weekly
[16] = 50 mg AP1189 (acetate salt) once daily plus MTX weekly
[17] = 100 mg AP1189 (acetate salt) group
[18] = 100 mg AP1189 (acetate salt) once daily plus MTX (10-25 mg) weekly
[19] = 100 mg AP1189 (acetate salt) once daily plus MTX weekly

CN(Cc1cnc2nc(N)nc(N)c2n1)c1ccc(C(=O)N[C@@H](CCC(=O)O)C(=O)O)cc1 [MTX, methotrexate]
Effect on aminotransferases (transaminases) [1]: cause an increase in aminotransferases

(E)-N-trans-{3-[1-(2-nitrophenyl)-1H-pyrrol-2-yl]-allylidene}-aminoguanidinium acetate [AP1189]
Cytokine release (macrophages): reduce cytokine release
Anti-inflammatory action in peritonitis (peritonitis): elicits anti-inflammatory actions
Resolution phase (peritonitis; peritonitis): accelerated the resolution phase
ERK1/2 phosphorylation (MC3R): cause ERK1/2 phosphorylation
canonical cAMP generation (MC3R): does not induce canonical cAMP generation
Efferocytosis [2]: proefferocytic effect
Combined effect of AP1189 and methotrexate (MTX) (mouse model of arthritis): synergistic effect
Melanogenesis (melanocytes): no melanogenesis was induced
ERK1/2 phosphorylation (MC1R): cause ERK1/2 phosphorylation
canonical cAMP generation (MC1R): does not induce canonical cAMP generation
ALAT 2 weeks (share of subjects with clinical significant abnormal value) [3, 7]: 6.3%
ALAT CSA (Clinical significant abnormal value), number [3, 7]: 2
ALAT 4 weeks (share of subjects with clinical significant abnormal value) [3, 8]: 6.1%
ALAT CSA (Clinical significant abnormal value), number [3, 8]: 2
ALAT 5 weeks (share of subjects with clinical significant abnormal value) [3, 9]: 6.3%
ALAT CSA (Clinical significant abnormal value), number [3, 9]: 2
Effect on MTX-associated elevation of transaminases ([3]; 50 mg dosage AP1189 (acetate salt), with MTX): did not reduce MTX-associated elevation of transaminases
ALAT 2 weeks (share of subjects with clinical significant abnormal value) [3, 10]: 0.0%
ALAT CSA (Clinical significant abnormal value), number [3, 10]: 0
ALAT 4 weeks (share of subjects with clinical significant abnormal value) [3, 11]: 0.0%
ALAT CSA (Clinical significant abnormal value), number [3, 11]: 0
ALAT 5 weeks (share of subjects with clinical significant abnormal value) [3, 12]: 0.0%
ALAT CSA (Clinical significant abnormal value), number [3, 12]: 0
Effect on MTX-associated elevation of transaminases [3, 13]: completely abolish the MTX-associated elevation of transaminases
ALAT change ([3]; dosage of 50 mg, with MTX, at 2 weeks, 4 weeks (EoT) and 5 weeks (FoV)): an increase in ALAT is observed
ALAT elevation ([3]; dosage of 100 mg AP1189, with MTX): 0.0%
Macroscopic and histological parameters of joint disruption [4]: significant reduction
C Max (mean +/− SD, N = 9) ([5]; 50 mg once daily): 180 ± 38 ng/mL
C Trough (Mean +/− SD, N = 9) ([5]; 50 mg once daily): 46 ± 14 ng/mL
C Max (mean +/− SD, N = 9) ([5]; 100 mg once daily): 427 ± 76 ng/mL
C Trough (Mean +/− SD, N = 9) ([5]; 100 mg once daily): 100 ± 25 ng/mL
C Max (mean +/− SD, N = 9) ([5]; 200 mg once daily): 893 ± 198 ng/mL
C Trough (Mean +/− SD, N = 9) ([5]; 200 mg once daily): 186 ± 45 ng/mL
CDAI Baseline, group mean [6, 14]: 36.1
CDAI Screening, group mean [6, 14]: 35.6
CDAI Week 4, group mean [6, 15]: 24.2
CDAI Week 2, group mean [6, 15]: 29.9
CDAI Week 5, group mean [6, 15]: 22.9
CDAI Difference [6, 16]: −11.9
CDAI Difference in % [6, 16]: 33%
CDAI Baseline, group mean [6, 17]: 39
CDAI Screening, group mean [6, 17]: 38.9
CDAI Week 4, group mean [6, 18]: 23.9
CDAI Week 2, group mean [6, 18]: 28.9
CDAI Week 5, group mean [6, 18]: 21.3
CDAI Difference [6, 19]: −15.1
CDAI Difference in % [6, 19]: 39%
Efficacy in treating rheumatoid arthritis (CDAI) [6, 13]: a reduction in CDAI
Effect in reducing CDAI ([6]; both tested dosages, 50 mg and 100 mg, with MTX): significant effect of AP1189 in reducing CDAI
